Measurements from ChEMBL document CHEMBL3882729, “Receptor-type kinase modulators and methods of use” (2009).

Tests used:
[1] = molecular target: Receptor tyrosine-protein kinase erbB-2 (Homo sapiens, UniProt P04626); experiment: Inhibition of recombinant human N-terminal GST His6-tagged thrombin cleavage site-fused ErbB2 kinase domain (Q679 to V1255 residues) expressed in baculovirus infected insect Sf9 cells using biotinylated poly-EY as substrate after 60 mins by alphascreen assay
Ephrin type-A receptor 2 = Ephrin type-A receptor 2 (Homo sapiens, UniProt P29317); experiment: Inhibition of recombinant human N-terminal His6-tagged EphA2 (N598 to R890 residues) expressed in baculovirus using poly-EY as substrate after 180 mins by luciferase coupled chemiluminescence assay
[2] = molecular target: Vascular endothelial growth factor receptor 1 (Homo sapiens, UniProt P17948); experiment: Inhibition of recombinant human N-terminal GST-tagged factor 10a cleavage site-fused Flt1 (K784 to I1338 residues) expressed in baculovirus infected insect Sf9 cells using poly-EY as substrate after 120 mins in presence of gamma33P-ATP by liquid scintillation spectrometry
Ephrin type-B receptor 4 = molecular target: T1, Ephrin type-B receptor 4 (Homo sapiens, UniProt P54760); experiment: Inhibition of recombinant human N-terminal His6-tagged EphB4 kinase domain (E605 to E890 residues) expressed in baculovirus using poly-AEKY as substrate after 150 mins in presence of gamma33P-ATP by liquid scintillation spectrometry
T1 sequence (P54760 whole entry): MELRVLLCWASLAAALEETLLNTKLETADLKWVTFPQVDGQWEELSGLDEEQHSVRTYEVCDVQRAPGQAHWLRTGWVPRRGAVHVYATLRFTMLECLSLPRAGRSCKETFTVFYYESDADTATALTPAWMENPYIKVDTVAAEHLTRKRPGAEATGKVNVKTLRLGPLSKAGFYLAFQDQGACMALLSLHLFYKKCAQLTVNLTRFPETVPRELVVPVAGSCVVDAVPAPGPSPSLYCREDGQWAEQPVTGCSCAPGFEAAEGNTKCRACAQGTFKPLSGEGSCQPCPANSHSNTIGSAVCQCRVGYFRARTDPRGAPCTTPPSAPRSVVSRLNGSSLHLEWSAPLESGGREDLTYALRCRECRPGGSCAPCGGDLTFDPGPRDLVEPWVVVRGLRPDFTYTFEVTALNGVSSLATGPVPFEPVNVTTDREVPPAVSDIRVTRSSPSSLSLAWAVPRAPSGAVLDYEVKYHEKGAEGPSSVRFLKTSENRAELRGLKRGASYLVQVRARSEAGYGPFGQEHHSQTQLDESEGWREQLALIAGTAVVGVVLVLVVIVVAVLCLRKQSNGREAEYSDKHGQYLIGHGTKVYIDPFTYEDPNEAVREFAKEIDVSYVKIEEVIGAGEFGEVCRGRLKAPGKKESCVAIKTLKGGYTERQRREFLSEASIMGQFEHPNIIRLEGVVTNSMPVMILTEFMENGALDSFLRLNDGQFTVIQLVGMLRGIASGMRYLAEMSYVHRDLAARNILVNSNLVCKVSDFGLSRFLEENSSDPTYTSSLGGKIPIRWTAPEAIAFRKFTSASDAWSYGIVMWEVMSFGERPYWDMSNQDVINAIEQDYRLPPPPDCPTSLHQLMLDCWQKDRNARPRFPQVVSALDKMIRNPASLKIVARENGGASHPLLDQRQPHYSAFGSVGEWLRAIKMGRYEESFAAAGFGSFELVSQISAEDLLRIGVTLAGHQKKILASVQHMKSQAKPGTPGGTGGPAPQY

[3] = molecular target: Vascular endothelial growth factor receptor 2 (Homo sapiens, UniProt P35968); experiment: Inhibition of recombinant human N-terminal GST-fused KDR (D807 to V1356 residues) expressed in baculovirus infected […] insect Sf9 cells using poly-EY as substrate after 240 mins by luciferase coupled chemiluminescence assay
Chain of Vascular endothelial growth factor receptor 2 (P35968 whole entry, the tested form may be a part): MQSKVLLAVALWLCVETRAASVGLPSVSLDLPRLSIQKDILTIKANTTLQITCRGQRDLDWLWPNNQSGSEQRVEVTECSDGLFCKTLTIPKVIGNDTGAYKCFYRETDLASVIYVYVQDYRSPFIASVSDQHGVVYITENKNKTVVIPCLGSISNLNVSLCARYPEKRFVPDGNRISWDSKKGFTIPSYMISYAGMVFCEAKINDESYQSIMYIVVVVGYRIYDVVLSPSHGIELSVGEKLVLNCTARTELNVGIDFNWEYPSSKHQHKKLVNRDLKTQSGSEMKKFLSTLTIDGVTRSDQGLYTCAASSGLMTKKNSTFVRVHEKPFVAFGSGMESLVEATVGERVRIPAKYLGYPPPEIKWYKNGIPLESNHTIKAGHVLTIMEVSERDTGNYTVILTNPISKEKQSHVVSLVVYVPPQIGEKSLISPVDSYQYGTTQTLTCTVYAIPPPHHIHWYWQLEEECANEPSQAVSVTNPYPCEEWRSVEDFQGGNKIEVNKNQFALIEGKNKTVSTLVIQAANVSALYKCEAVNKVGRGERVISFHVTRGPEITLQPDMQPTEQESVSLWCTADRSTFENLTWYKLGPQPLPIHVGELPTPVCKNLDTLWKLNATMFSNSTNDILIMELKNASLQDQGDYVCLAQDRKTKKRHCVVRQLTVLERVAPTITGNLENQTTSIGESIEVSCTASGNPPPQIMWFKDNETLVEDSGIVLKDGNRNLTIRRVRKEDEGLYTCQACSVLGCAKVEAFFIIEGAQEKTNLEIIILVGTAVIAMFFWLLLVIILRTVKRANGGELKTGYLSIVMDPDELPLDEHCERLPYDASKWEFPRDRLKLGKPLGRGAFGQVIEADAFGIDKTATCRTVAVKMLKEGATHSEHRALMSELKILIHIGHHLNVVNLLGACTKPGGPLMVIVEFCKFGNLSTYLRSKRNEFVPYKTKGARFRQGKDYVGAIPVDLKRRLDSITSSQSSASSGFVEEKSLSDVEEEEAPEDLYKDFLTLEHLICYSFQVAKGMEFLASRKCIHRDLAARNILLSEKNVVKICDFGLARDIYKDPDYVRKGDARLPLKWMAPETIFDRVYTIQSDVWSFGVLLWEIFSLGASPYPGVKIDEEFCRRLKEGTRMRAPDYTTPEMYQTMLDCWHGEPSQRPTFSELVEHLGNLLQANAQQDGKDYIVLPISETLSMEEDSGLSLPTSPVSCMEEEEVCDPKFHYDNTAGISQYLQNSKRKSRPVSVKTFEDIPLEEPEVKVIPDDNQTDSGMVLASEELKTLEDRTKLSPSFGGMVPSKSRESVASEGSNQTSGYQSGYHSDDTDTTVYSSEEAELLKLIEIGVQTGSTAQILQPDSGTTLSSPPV

Chain of Vascular endothelial growth factor receptor 1 (P17948 whole entry, the tested form may be a part): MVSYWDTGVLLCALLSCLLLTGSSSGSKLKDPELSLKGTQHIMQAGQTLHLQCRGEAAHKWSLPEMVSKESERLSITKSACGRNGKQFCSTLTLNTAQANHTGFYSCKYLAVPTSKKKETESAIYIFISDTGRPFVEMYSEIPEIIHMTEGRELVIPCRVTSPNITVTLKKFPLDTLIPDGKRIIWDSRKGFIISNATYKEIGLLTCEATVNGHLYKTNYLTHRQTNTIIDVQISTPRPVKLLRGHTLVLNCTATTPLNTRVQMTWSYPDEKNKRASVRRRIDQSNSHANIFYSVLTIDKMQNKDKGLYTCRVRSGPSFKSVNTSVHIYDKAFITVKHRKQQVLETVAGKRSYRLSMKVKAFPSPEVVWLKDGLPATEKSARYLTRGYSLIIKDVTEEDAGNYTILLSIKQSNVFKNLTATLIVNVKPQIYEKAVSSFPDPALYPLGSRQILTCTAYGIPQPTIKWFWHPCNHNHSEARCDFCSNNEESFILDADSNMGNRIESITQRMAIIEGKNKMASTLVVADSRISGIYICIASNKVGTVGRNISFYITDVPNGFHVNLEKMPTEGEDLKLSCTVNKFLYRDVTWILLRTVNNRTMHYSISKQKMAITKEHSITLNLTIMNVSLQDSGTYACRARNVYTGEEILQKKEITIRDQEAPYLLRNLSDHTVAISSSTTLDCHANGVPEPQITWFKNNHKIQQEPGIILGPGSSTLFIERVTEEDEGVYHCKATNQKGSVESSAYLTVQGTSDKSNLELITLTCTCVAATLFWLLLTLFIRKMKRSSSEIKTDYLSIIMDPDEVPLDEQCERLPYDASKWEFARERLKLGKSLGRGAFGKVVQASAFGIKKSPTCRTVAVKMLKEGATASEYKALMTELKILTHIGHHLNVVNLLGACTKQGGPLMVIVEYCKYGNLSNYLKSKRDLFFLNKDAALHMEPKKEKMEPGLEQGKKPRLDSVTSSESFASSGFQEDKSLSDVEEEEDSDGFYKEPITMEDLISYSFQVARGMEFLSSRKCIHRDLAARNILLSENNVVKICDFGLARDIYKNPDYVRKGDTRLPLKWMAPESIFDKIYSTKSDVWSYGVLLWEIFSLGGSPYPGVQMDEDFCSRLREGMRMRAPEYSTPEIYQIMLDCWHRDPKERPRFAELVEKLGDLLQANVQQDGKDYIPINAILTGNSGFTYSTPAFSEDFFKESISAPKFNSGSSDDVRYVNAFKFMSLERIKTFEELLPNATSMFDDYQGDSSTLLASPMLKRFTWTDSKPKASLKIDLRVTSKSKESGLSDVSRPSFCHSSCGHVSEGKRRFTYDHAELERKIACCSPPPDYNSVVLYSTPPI
Chain of Receptor tyrosine-protein kinase erbB-2 (P04626 whole entry, the tested form may be a part): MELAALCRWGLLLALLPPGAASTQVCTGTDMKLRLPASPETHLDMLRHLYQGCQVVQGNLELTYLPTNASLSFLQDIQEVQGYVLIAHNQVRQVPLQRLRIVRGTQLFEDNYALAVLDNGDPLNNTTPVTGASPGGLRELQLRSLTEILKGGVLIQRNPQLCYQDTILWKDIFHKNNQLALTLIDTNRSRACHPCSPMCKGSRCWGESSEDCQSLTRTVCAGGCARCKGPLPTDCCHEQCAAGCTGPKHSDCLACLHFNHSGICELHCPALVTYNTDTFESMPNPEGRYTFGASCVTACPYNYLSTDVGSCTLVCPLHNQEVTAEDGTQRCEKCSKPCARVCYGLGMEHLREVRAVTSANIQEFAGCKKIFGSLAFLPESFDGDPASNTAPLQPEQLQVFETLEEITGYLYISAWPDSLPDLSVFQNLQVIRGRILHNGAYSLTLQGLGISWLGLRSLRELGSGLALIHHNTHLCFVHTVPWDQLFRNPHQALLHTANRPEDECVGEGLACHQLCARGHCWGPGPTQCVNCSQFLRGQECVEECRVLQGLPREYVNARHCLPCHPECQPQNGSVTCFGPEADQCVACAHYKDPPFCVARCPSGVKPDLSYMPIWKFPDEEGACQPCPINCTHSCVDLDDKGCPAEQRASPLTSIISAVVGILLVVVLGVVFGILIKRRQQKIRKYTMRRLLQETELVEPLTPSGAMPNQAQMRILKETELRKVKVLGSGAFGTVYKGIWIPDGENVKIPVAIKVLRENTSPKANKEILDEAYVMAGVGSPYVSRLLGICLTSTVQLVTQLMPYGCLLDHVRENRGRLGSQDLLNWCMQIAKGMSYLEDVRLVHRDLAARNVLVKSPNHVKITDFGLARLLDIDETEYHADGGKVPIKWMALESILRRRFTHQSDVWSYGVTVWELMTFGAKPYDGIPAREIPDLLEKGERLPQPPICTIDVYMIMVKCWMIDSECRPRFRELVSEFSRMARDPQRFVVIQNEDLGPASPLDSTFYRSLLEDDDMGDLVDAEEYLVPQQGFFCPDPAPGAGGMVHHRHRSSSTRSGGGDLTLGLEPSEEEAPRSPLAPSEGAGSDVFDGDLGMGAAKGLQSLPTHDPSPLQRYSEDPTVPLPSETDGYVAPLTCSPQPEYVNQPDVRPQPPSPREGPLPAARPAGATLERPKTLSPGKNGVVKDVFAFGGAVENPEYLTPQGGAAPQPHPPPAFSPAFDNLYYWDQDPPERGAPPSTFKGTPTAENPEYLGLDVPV
Chain of Ephrin type-A receptor 2 (P29317 whole entry, the tested form may be a part): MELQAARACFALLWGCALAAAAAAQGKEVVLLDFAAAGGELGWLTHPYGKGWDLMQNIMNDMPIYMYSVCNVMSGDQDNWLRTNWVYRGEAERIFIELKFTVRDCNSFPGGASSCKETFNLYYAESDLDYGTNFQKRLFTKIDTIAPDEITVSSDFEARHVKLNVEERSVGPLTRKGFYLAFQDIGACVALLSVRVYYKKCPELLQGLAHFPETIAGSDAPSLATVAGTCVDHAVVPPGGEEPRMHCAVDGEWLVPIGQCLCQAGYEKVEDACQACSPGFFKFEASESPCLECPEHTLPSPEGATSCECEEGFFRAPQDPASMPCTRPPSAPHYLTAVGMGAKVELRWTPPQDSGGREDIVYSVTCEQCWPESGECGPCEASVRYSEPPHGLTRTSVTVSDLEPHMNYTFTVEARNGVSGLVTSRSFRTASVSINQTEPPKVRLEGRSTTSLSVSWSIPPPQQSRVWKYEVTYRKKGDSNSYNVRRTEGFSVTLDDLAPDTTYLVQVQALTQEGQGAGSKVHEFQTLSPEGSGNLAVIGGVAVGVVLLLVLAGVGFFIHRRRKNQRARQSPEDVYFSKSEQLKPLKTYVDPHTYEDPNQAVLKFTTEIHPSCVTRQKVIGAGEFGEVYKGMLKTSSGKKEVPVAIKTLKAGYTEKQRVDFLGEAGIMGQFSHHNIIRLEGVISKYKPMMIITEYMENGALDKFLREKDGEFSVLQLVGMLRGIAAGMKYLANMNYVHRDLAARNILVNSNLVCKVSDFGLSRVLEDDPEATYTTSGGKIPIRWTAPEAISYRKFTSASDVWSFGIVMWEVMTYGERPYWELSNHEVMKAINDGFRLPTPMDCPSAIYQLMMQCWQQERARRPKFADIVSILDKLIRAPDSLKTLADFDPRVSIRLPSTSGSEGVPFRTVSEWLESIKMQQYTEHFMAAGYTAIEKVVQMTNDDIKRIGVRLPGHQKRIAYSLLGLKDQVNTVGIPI

IC50 [1] [nM]	IC50 (Ephrin type-A receptor 2) [nM]	IC50 [2] [nM]	IC50 (Ephrin type-B receptor 4) [nM]	IC50 [3] [nM]	Structure (SMILES)
50 to 1000	50 to 1000	50 to 1000	< 50	50 to 1000	COc1cc2c(Nc3cc(Cl)c(Cl)cc3F)ncnc2cc1OC[C@@H]1CN2CCOC[C@H]2CO1
1000 to 20000	50 to 1000	50 to 1000	< 50	< 50	COc1cc2c(Nc3ccc(Br)c(Cl)c3F)ncnc2cc1OC[C@@H]1CN2CCC[C@H]2C(=O)N1
–	50 to 1000	50 to 1000	–	< 50	COc1cc2c(Nc3ccc(Cl)c(Cl)c3F)ncnc2cc1OC[C@@H]1CN2CCC[C@H]2C(=O)N1
–	< 50	50 to 1000	–	< 50	COc1cc2c(Nc3ccc(Cl)c(Cl)c3F)ncnc2cc1OC[C@@H]1CN2CCC[C@@H]2C(=O)N1
50 to 1000	50 to 1000	50 to 1000	50 to 1000	50 to 1000	COc1cc2c(Nc3ccc(F)c(Cl)c3F)ncnc2cc1OC[C@H]1CN2CCOC[C@H]2CO1
50 to 1000	< 50	50 to 1000	< 50	< 50	COc1cc2c(Nc3cc(Cl)c(Br)cc3F)ncnc2cc1OC[C@@H]1CN2CCC[C@H]2CO1
50 to 1000	50 to 1000	50 to 1000	< 50	50 to 1000	COc1cc2c(Nc3cc(Cl)c(Br)cc3F)ncnc2cc1OC[C@@H]1CN2CCOC[C@H]2CO1
50 to 1000	50 to 1000	1000 to 20000	50 to 1000	50 to 1000	COc1cc2c(Nc3ccc(Cl)c(Cl)c3)ncnc2cc1OC1C[C@@H]2CN(C)C[C@@H]2C1 (stereo not given in full)
< 50	< 50	< 50	< 50	< 50	COc1cc2c(Nc3ccc(Br)c(Cl)c3F)ncnc2cc1OC[C@@H]1CN2CCOC[C@H]2CO1
–	50 to 1000	50 to 1000	–	50 to 1000	COc1cc2c(Nc3ccc(Cl)c(Cl)c3)ncnc2cc1OCC1CN2CSC[C@H]2CO1 (stereo not given in full)
50 to 1000	50 to 1000	50 to 1000	50 to 1000	50 to 1000	COc1cc2c(Nc3cc(Cl)c(Cl)cc3F)ncnc2cc1OC[C@H]1CN2CCOC[C@H]2CO1
50 to 1000	< 50	50 to 1000	< 50	< 50	COc1cc2c(Nc3cc(Cl)c(Cl)cc3F)ncnc2cc1OC[C@@H]1CN2CCC[C@H]2CO1
1000 to 20000	50 to 1000	50 to 1000	< 50	50 to 1000	COc1cc2c(Nc3ccc(Cl)c(Cl)c3F)ncnc2cc1OC[C@@H]1CN2CCC[C@H]2C(=O)N1C
50 to 1000	< 50	50 to 1000	< 50	50 to 1000	COc1cc2c(Nc3ccc(F)c(Cl)c3F)ncnc2cc1OC[C@@H]1CN2CCC[C@H]2CO1
50 to 1000	50 to 1000	50 to 1000	50 to 1000	< 50	COc1cc2c(Nc3ccc(Br)c(Cl)c3F)ncnc2cc1OC[C@H]1CN2CCOC[C@H]2CO1
< 50	50 to 1000	50 to 1000	< 50	< 50	COc1cc2c(Nc3ccc(Cl)c(Cl)c3)ncnc2cc1OCC1CN2CCOCC2CO1 (stereo not given)
50 to 1000	50 to 1000	50 to 1000	< 50	< 50	COc1cc2c(Nc3ccc(Cl)c(Cl)c3F)ncnc2cc1OC[C@H]1CN2CCOC[C@H]2CO1
50 to 1000	< 50	50 to 1000	< 50	< 50	COc1cc2c(Nc3ccc(Br)c(Cl)c3Cl)ncnc2cc1OC[C@@H]1CN2CCC[C@H]2CO1

IC50 [1] [nM]	IC50 (Ephrin type-A receptor 2) [nM]	IC50 [2] [nM]	IC50 (Ephrin type-B receptor 4) [nM]	IC50 [3] [nM]	Structure (SMILES)
50 to 1000	< 50	50 to 1000	< 50	< 50	COc1cc2c(Nc3ccc(Cl)c(Cl)c3F)ncnc2cc1OC[C@@H]1CN2CCC[C@H]2CO1
1000 to 20000	50 to 1000	50 to 1000	< 50	50 to 1000	COc1cc2c(Nc3ccc(Br)c(Cl)c3Cl)ncnc2cc1OC[C@@H]1CN2CCOC[C@H]2CO1
50 to 1000	< 50	< 50	< 50	< 50	COc1cc2c(Nc3ccc(Br)c(Cl)c3F)ncnc2cc1OC[C@@H]1CN2CCC[C@H]2CO1
< 50	< 50	50 to 1000	< 50	< 50	COc1cc2c(Nc3ccc(Cl)c(Cl)c3F)ncnc2cc1OC[C@@H]1C[C@@H]2CN(C)C[C@@H]2C1 [TESEVATINIB]
50 to 1000	1000 to 20000	–	50 to 1000	1000 to 20000	COc1cc2c(Nc3ccc(Br)c(Cl)c3)ncnc2cc1O[C@@H]1CO[C@H]2[C@@H]1OC[C@@H]2NS(C)(=O)=O
50 to 1000	50 to 1000	50 to 1000	50 to 1000	50 to 1000	COc1cc2c(Nc3cc(Cl)c(Br)cc3F)ncnc2cc1OC[C@H]1CN2CCOC[C@H]2CO1
1000 to 20000	1000 to 20000	–	50 to 1000	1000 to 20000	COc1cc2c(Nc3ccc(Br)c(Cl)c3)ncnc2cc1O[C@H]1CO[C@H]2[C@@H]1OC[C@@H]2N1CCCC1
50 to 1000	1000 to 20000	–	50 to 1000	50 to 1000	COc1cc2c(Nc3ccc(Br)c(Cl)c3)ncnc2cc1O[C@@H]1CCOC1
50 to 1000	1000 to 20000	–	50 to 1000	1000 to 20000	COc1cc2c(Nc3ccc(Br)c(Cl)c3)ncnc2cc1O[C@@H]1CO[C@H]2[C@@H]1OC[C@@H]2O
1000 to 20000	1000 to 20000	–	50 to 1000	1000 to 20000	COc1cc2c(Nc3ccc(Br)c(Cl)c3)ncnc2cc1O[C@H]1CO[C@H]2[C@@H]1OC[C@@H]2N1CCCCC1
50 to 1000	50 to 1000	–	< 50	50 to 1000	COc1cc2c(Nc3cc(Cl)c(Cl)cc3F)ncnc2cc1OCC1CN(C)CCO1 (stereo not given)
1000 to 20000	–	1000 to 20000	–	–	COc1cc2c(Nc3ccc(Br)c(Cl)c3Cl)ncnc2cc1OC[C@@H]1CO[C@H]2[C@@H]1OC[C@@H]2OC
1000 to 20000	1000 to 20000	–	1000 to 20000	1000 to 20000	COc1cc2c(Nc3ccc(N4CCN(C)CC4)cc3)ncnc2cc1O[C@H]1CO[C@H]2[C@@H]1OC[C@@H]2F
< 50	< 50	–	< 50	< 50	COc1cc2c(Nc3cc(Cl)c(Cl)cc3F)ncnc2cc1OCC1CN(C)C(C)(C)CO1 (stereo not given)
50 to 1000	50 to 1000	–	50 to 1000	50 to 1000	COc1cc2c(Nc3ccc(Cl)c(Cl)c3)ncnc2cc1OCc1csc(C2CCCN(C)C2)n1 (stereo not given)
< 50	< 50	–	< 50	< 50	COc1cc2c(Nc3ccc(Cl)c(Cl)c3F)ncnc2cc1OCC1CN(C)CCO1 (stereo not given)
50 to 1000	50 to 1000	–	< 50	50 to 1000	COc1cc2c(Nc3ccc(Cl)c(Cl)c3)ncnc2cc1OCC1CN(C)C(C)(C)C(=O)O1 (stereo not given)

Structure (SMILES)	IC50 [1] [nM]	IC50 (Ephrin type-A receptor 2) [nM]	IC50 [2] [nM]	IC50 (Ephrin type-B receptor 4) [nM]	IC50 [3] [nM]
COc1cc2c(Nc3ccc(Cl)c(Cl)c3)ncnc2cc1OC[C@H]1CN2CCC[C@H]2CO1	< 50	< 50	50 to 1000	< 50	< 50
COc1cc2c(Nc3ccc(Cl)c(Cl)c3)ncnc2cc1OC[C@@H]1CN2CCC[C@H]2CO1	50 to 1000	< 50	50 to 1000	< 50	< 50
COc1cc2c(Nc3ccc(Cl)c(Cl)c3)ncnc2cc1OC[C@H]1CN2CCC[C@@H]2CO1	50 to 1000	50 to 1000	50 to 1000	< 50	< 50
